In US8609656B2, “Heteroarylphenylurea derivative” (Chugai Seiyaku Kabushiki Kaisha, priority 2004, dated 2013) one finds IC50 and solubility data, which are given here for 14 molecules.

Converted amounts (≈) assume the structure as drawn. Structures can show the parent of a compound that is named as a salt.

For data set [1], the system named is VEGF non-dependent human umbilical vein endothelial cells (HUVEC). Description: Cell growth inhibition test, VEGF non-dependent HUVEC. Format: cell-based. The following applies: 72 hours, WST-1, read-out: HUVEC (VEGF Nondependence), 50% Growth Inhibition Concentration (IC50 value). The protocol:
(§1) Cell Growth Inhibition Test
(§2) With respect to the compounds relating to the present invention and the known compound (BAY 43-9006), cell growth inhibition activity was measured.
(§3) A sample compound was in-series diluted with dimethyl sulfoxide, and then was 1/50 diluted with a Ca^2+- and Mg^2+-free phosphate-bufferized physiological saline and its 20 μL was poured to a 96-well plate. […] Each of these cell suspensions was dividedly poured to the sample added plate in 180 μL/well and cultured in a 5% carbon dioxide incubator at 37° C. After 72 hours, 20 μL of WST-(HCT 116, a product of Dojin) or WST-1 (HUVEC, a product of Roche diagnostics) was added thereto to each well and the absorbance at 450 nm (reference wavelength: 650 nm) was measured. From the growth inhibition ratio of addition of the sample compound to no-addition of the sample compound as a reference, the 50% growth inhibition IC50) of the sample compound was calculated.
(§4) With respect to the group of representative compounds of the present invention, the IC50 values of HCT 116 and HUVEC (VEGF nondependent growth and VEGF dependent growth) are shown in Tables 5-1 to 5-3.

Data set [2] concerns human colorectal cancer cell strain HCT 116. Kind of data set: Cell growth inhibition test, HCT 116. Format: cell-based. The following applies: 72 hours, read-out: HCT116, 50% Growth Inhibition Concentration (IC50 value). The protocol:
as §1, §2, §3, §4

Data set [3] relates to VEGF dependent HUVEC. Description: Cell growth inhibition test, VEGF dependent HUVEC. Format: cell-based. The following applies: Homo sapiens, 20 ng/mL of VEGF, 72 hours, WST-1, read-out: HUVEC (VEGF Dependence), 50% Growth Inhibition Concentration (IC50 value). The protocol: as §1, §2, §3, §4
Data set [4] in a line: Solubility to fasted state simulated intestinal fluid. It is filed as physicochemical. The following applies: fassif, kinetic from dmso stock, fasted state simulated intestinal fluid (pH 6.5), 37° C. The protocol: Method of Measuring Solubility to Fasted State Simulated Intestinal Fluid
To a 96-well plate, 2 μL of a dimethyl sulfoxide solution of the compound relating to the present invention or that of the compound BAY 43-9006 was poured at one time, respectively, and fasted state simulated intestinal fluid (pH 6.5) was added 200 μL by 200 μL, and the plate was shaken at 37° C. for 20 hours. The solution was filtered with a membrane filter and 101 μL of the filtrate was transferred to an UV plate, and 100 μL of a mixed solution of ethanol:water=2:1 was added thereto. On the other hand, as a standard solution, 2 μL of a dimethyl sulfoxide solution was added to a solution containing 4 μL of dimethyl sulfoxide, 400 μL of ethanol and 200 μL of water and the obtained solution was transferred 101 μL by 101 μL to the UV plate and to this UV plate, the simulated fasting bile-containing intestinal juice (pH 6.5) was added 100 μL by 100 μL. The solubility was calculated by the following equation. Solubility=(absorbance of sample solution-blank)/(absorbance of standard solution-blank)×[…]
165 μL is a concentration of the standard solution.
Composition of Fasted State Simulated Intestinal Fluid
Fasted state simulated intestinal fluid was prepared in accordance with E. Galia et al., Pharm. Res., 698, 1998.
To about 90 mL of water, 161 mg of taurocholic acid, 59 mg of L-α-phosphatidylcholine, 0.39 g of potassium dihydrogenphosphate and 0.77 g of potassium chloride were added and the pH of the mixture solution […] and the mixture solution was filtered with a membrane filter.

In data set [5] the target is T1, recombinant Raf-1 protein (activated type GST-Raf-1) (Homo sapiens, UniProt P04049).
T1 construct: fused on or other part: GST tag fused to Raf-1
Description: RAF-1 enzyme inhibition test (33P incorporation into MEK 1 protein). It is filed as biochemical. Conditions: 10 μM ATP, GST-MEK1 substrate, 30° C., 45 minutes; read-out: Raf-1 Enzyme Inhibition, 50% Enzyme Inhibition Concentration (IC50 value). The protocol: RAF-1 Enzyme Inhibition Test
With respect to the compounds relating to the present invention and the known compound (BAY 43-9006):
[drawing 660] the Raf-1 protein inhibition activity was measured. The enzymatic reaction was measured by incorporation of ^33P-phosphoric acid into MEK 1 protein by a recombinant Raf-1 protein. The activity was measured by preparing 50 μL of a reaction solution containing a dimethyl sulfoxide solution of the compound relating to the present invention or the compound BAY 43-9006 at a varied concentration [as the final concentration, the reaction solution containing […] of TRIS hydrochloric buffer (pH 7.5), 1 mM of dithiothreitol, 100 mM of sodium chloride, 10 mM of potassium fluoride, 1 mM of sodium vanadate, 10 mM of magnesium chloride, 10 μM of adenosine triphosphate (ATP, containing ^33P-ATP of 12580Bq), 2 μg of GST-MEK1 and 25 ng of an activated type GST-Raf-1]; keeping the reaction solution at 30° C. for 45 minutes; adding 100% trichloroacetic acid to the reaction solution in an amount twice the volume of the reaction solution to precipitate a proteinous component; recovering the precipitate on a glass filter; and measuring the radioactivity of the recovered product. The 50% inhibition concentration (IC50) was obtained from the inhibition ratio to a sample-free reference.
The compound BAYT 43-9006 was prepared on the basis of the description (Example 41) of WO 00/42012.

T1 sequence (P04049 349-648 limits assumed): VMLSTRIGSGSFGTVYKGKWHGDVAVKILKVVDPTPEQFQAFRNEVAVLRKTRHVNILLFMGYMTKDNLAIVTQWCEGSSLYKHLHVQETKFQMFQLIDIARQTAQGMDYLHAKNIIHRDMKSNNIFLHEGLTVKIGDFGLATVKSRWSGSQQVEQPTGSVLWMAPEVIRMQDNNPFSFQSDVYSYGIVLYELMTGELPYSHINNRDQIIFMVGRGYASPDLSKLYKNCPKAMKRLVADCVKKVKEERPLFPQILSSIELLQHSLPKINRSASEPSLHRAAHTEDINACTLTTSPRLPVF

For `COCCNc1ncnc2c1ncn2-c1ccc(NC(=O)Nc2ccc(Cl)c(C(F)(F)F)c2)cc1.Cl` [Table 1, Compound 35, 1-(4-Chloro-3-(trifluoromethyl)phenyl)-3-{4-[6-(2-methoxy-ethylamino)purin-9-yl]phenyl}urea hydrochloride], the IC50 in data set [1] was found to be 2.4 µM; in data set [2], 2.8 µM; in data set [3] it was 0.46 µM. For the same molecule, the solubility at 20 h in data set [4] was 24 µg/mL.

With `CN(C)/C=N\c1ncnc2c1ncn2-c1ccc(NC(=O)Nc2ccc(Cl)c(C(F)(F)F)c2)cc1` [Table 1, Compound 95, N′-(9-{4-[3-(4-Chloro-3-(tri-fluoromethyl)phenyl)ureido]-phenyl}-9H-purin-6-yl}-N,N-dimethylformamidine hydro-chloride], the IC50 in data set [5] was 0.042 µM; in data set [1] it was 2.6 µM; in data set [2] it was 3.1 µM; in data set [3] it was 0.47 µM.

As for `CC(C)C[C@H](N)C(=O)Nc1ncnc2c1ncn2-c1ccc(NC(=O)Nc2ccc(Cl)c(C(F)(F)F)c2)cc1` [Table 1, Compound 96, (S)-2-Amino-4-methyl-pentanoic acid 9-{4-[3-(4-chloro-3-(tri-fluoromethyl)phenyl)ureido}-phenyl)-9H-purin-6-yl)amide hydrochloride], the IC50 in data set [5] came to 0.044 µM; in data set [1], 3.2 µM; in data set [2], 2.2 µM; in data set [3], 0.091 µM. In data set [4], this molecule yielded a solubility at 20 h of 102 µg/mL.

For `N[C@@H](CCC(=O)Nc1ncnc2c1ncn2-c1ccc(NC(=O)Nc2ccc(Cl)c(C(F)(F)F)c2)cc1)C(=O)O` [Table 1, Compound 104, (S)-2-Amino-4-(9-{4-[3-(4-chloro-3-(trifluoromethyl)-phenyl)ureido]phenyl}-9H-purin-6-ylcarbamoyl)butanoic acid hydrochloride], the IC50 was 0.074 µM in data set [5], 7.4 µM in data set [1], 3.9 µM in data set [2] and 0.93 µM in data set [3].

Turning to `CNc1ncnc2c1ncn2-c1ccc(NC(=O)Nc2ccc(OCCN(C)C)c(C(F)(F)F)c2)cc1` [Table 2, Compound 52, 1-[4-(2-Dimethylaminoethoxy)-3-(trifluoromethyl)phenyl]-3-[4-(6-(methylamino)purin-9-yl)phenyl]urea], the IC50 in data set [1] was determined as 3.8 µM; in data set [2], 3.8 µM; in data set [3], 0.27 µM. In data set [4], the concentration in solution (solubility at 20 h) was 126 µg/mL (≈ 245 µM).

For `CNc1ncnc2c1ncn2-c1ccc(NC(=O)Nc2ccc(OC3CCN(C)CC3)c(C(F)(F)F)c2)cc1` [Table 2, Compound 62, 1-[4-(6-(Methylamino)purin-9-yl)-phenyl]-3-[4-(1-methylpiperidin-4-yloxy)-3-(trifluoromethyl)phenyl]-urea], the IC50 in data set [1] amounted to 0.9 µM; in data set [2] it was 0.7 µM; in data set [3] it was 0.011 µM. The molecule also displayed a solubility at 20 h in data set [4] of 35 µg/mL (≈ 64.7 µM).

For `CNc1ncnc2c1ncn2-c1ccc(NC(=O)Nc2ccc(CCCN(C)C)c(C(F)(F)F)c2)cc1` [Table 2, Compound 74], the IC50 in data set [1] was found to be 0.9 µM; in data set [2] it was 1.2 µM; in data set [3] it was 0.083 µM.

Take `CNc1ncnc2c1ncn2-c1ccc(NC(=O)Nc2ccc(CCCN3CCOCC3)c(C(F)(F)F)c2)cc1` [Table 2, Compound 76, 1-[4-(6-(Methylamino)purin-9-yl)phenyl]-3-[4-[3-morpholin-4-yl-propyl]-3-(trifluoromethyl)phenyl]-urea]: the IC50 in data set [1] came out at 1 µM; in data set [2], 0.9 µM; in data set [3], 0.057 µM.

For `CCN1CCN(Cc2ccc(NC(=O)Nc3ccc(-n4cnc5c(NC)ncnc54)cc3)cc2C(F)(F)F)CC1` [Table 3, Compound 14, 1-[4-(4-Ethyl-piperazin-1-ylmethyl)-3-(trifluoromethyl)phenyl]-3-[4-(6-(methylamino)purin-9-yl)phenyl]urea], the IC50 was 0.2 µM in data set [1], 0.3 µM in data set [2] and 0.004 µM in data set [3].

As to `CN1CCN(Cc2ccc(NC(=O)Nc3ccc(-n4cnc5cnccc54)cc3)cc2C(F)(F)F)CC1` [Table 3, Compound 18, 1-(4-Imidazo[4,5-c]pyridin-1-yl-phenyl)-3-[4-(4-methyl-piperazin-1-ylmethyl)-3-(trifluoromethyl)phenyl]urea], the values for the IC50 in data set [1], in data set [2] and in data set [3] were 3.1 µM, 2.7 µM and 0.026 µM, respectively.

For `CNc1ncnc2c1ncn2-c1ccc(NC(=O)Nc2ccc(CN3CCN(C(C)C)CC3)c(C(F)(F)F)c2)cc1` [Table 3, Compound 28, 1-[4-(4-Isopropyl-piperazin-1-ylmethyl)-3-(trifluoromethyl)phenyl]-3-[4-(6-(methylamino)purin-9-yl)phenyl]urea], the IC50 is 0.3 µM in data set [1], 0.2 µM in data set [2] and 0.008 µM in data set [3].

On to `CNc1ncnc2c1ncn2-c1ccc(NC(=O)Nc2ccc(OCCOC)c(C(F)(F)F)c2)cc1` [Table 3, Compound 41, 1-[4-(2-Methoxy-ethoxy)-3-(trifluoromethyl)phenyl]-3-[4-(6-(methylamino)purin-9-yl)phenyl]urea], for which the IC50 in data set [1] is 0.9 µM; in data set [2], 0.8 µM; in data set [3] it was 0.076 µM.

As for `CNc1ncnc2c1ncn2-c1ccc(NC(=O)Nc2ccc(CN3CC(C)NC(C)C3)c(C(F)(F)F)c2)cc1` (stereo not drawn) [Table 3, Compound 46, 1-[4-(3,5-Dimethyl-piperazin-1-ylmethyl)-3-(trifluoromethyl)phenyl]-3-[4-(6-(methylamino)purin-9-yl)phenyl]urea], the IC50 amounted to 0.041 µM in data set [5], 4.2 µM in data set [1], 2.8 µM in data set [2] and 0.29 µM in data set [3]. The molecule also came in with a solubility at 20 h in data set [4] of 23 µg/mL (≈ 41.5 µM).

Consider `CNc1ncnc2c1ncn2-c1ccc(NC(=O)Nc2cc(CCCN3CCOCC3)cc(C(F)(F)F)c2)cc1` [Table 3, Compound 48, 1-[4-(6-(Methylamino)purin-9-yl)phenyl]-3-[3-(3-morpholin-4-yl-propyl)-5-(trifluoromethyl)phenyl]-urea], for which the IC50 in data set [1] is 3.2 µM; in data set [2], 2.5 µM; in data set [3] it was 0.039 µM.
